Measured values taken from patent publication US10711041B2, “Lyophilisate containing a cyclic peptide of formula X1-[sequence]-X2” (priority 2013, dated 2020).

Legend:
[1] = Concentration in lung tissue and blood after aerosol inhalation, rat; format: in vivo; settings: after inhalation of aerosol
Protocol: The proof of a cyclic peptide of amino acid sequence SEQ ID NO:1 to SEQ ID NO:6 may take place in lung tissue of rats. For that exemplarily an aerosol was produced with a nebulizer from an aqueous solution of the cyclic peptide of amino acid sequence SEQ ID NO:1. The aerosol was inhaled by the experimental animal (72 mg/kg body weight). After termination of aerosol inhalation, the lung tissue, as well as the blood of the experimental animal was examined. By means of reverse HPLC/MS the concentration of the cyclic peptide of amino acid sequence SEQ ID NO:1 was determined Exemplarily, the cyclic peptide of amino acid sequence SEQ ID NO:1 could be detected in the lung tissue in a concentration of 1.2 μm/g after inhalation of 72 mg/kg body weight in sum. In contrast to that the cyclic peptide of amino acid sequence SEQ ID NO:1 could not be detected in the blood up to a detection limit of 0.1 μm/ml.

[2] = target: T1, amilorid-sensitive Sodium Ion Channel (ENaC) (Homo sapiens, UniProt P37088); experiment: Biological activity of condensed aerosol by Patch Clamp in A549 cells; format: cell-based; settings: Mesh-Type nebulizer, aerosol condensed in cooling trap
T1 construct: Macroscopic Sodium Ion Currents were derived from human lung epithelian cells A549; endogenous in cells; host or cells: A549 human lung epithelial cells
T1 sequence (P37088 1-669): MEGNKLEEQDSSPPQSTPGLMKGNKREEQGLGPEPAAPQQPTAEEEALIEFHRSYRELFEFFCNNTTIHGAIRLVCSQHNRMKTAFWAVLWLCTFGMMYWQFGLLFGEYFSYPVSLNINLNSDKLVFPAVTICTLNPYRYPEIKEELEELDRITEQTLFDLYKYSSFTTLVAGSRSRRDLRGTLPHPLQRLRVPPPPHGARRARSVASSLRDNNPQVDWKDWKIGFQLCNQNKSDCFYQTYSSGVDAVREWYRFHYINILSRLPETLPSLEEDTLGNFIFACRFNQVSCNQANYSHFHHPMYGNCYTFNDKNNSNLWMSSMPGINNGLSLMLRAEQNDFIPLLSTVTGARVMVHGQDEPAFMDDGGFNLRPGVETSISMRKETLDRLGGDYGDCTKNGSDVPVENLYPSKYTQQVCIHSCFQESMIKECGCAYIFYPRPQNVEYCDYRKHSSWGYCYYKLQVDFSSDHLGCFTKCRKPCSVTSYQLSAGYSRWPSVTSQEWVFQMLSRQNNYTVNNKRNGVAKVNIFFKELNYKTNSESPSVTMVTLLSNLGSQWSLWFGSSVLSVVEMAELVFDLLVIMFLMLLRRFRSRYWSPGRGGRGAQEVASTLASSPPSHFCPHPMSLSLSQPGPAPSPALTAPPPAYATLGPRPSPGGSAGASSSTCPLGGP
T1 sequence (P51168 1-640 partner): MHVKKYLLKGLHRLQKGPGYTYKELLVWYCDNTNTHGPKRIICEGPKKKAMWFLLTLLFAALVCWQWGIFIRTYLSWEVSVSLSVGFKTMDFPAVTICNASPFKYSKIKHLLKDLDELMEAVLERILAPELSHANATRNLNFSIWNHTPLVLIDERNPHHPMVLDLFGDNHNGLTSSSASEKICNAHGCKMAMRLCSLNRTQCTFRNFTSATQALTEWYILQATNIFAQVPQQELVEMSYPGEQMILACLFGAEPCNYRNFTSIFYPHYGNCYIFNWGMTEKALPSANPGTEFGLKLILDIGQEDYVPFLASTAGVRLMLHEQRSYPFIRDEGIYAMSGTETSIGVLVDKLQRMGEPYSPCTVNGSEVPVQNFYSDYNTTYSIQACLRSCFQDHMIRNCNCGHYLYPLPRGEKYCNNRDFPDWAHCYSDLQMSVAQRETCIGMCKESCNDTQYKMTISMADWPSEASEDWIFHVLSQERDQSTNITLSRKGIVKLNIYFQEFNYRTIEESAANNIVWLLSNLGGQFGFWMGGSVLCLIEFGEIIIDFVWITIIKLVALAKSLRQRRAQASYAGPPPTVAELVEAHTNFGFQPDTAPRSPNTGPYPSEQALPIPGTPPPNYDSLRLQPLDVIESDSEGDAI
T1 sequence (P51170 1-649 partner): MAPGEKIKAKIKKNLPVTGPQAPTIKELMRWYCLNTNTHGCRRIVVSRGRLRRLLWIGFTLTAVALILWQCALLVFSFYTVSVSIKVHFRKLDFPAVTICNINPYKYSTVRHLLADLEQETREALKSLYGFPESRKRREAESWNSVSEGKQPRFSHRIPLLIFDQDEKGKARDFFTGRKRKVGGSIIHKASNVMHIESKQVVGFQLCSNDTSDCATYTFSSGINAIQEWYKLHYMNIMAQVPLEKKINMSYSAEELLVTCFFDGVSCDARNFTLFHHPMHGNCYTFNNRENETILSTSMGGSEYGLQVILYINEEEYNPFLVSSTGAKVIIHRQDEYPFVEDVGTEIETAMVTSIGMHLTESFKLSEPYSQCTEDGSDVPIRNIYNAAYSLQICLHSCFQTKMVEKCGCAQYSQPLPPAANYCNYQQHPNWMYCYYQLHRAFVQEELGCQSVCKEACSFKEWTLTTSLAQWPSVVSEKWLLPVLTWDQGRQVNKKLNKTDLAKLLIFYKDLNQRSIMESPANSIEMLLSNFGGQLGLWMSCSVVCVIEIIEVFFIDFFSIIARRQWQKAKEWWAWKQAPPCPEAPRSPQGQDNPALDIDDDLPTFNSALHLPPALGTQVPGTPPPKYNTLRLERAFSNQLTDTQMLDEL
Protocol: Since proteins and peptides occasionally may be rather unstable, it was investigated, whether the cyclic peptides of amino acid sequence SEQ ID NO:1 to SEQ ID NO:6 in dissolved preparation during conversion into an aerosol remain stable. For that the cyclic peptides were dissolved in water as described in example 4. After filling into the storage container of a nebulizer the aqueous solution of the cyclic peptides were converted into an aerosol. For that a “Mesh-Type” nebulizer was used. The biological activity of the collected aerosols was determined by means of the Patch Clamp method. Thereby macroscopic currents of A549 cells were deduced in the “whole cell” configuration of the “Patch-clamp” technique, as described under “Electrophysiological Investigations of the Amilorid-sensitive Sodium Ion Channel (ENaC)”.

Compound: C[C@@H]1NC(=O)CNC(=O)[C@H](CCC(=O)O)NC(=O)[C@@H]2CCCN2C(=O)[C@H]([C@@H](C)O)NC(=O)[C@H](CCC(=O)O)NC(=O)[C@H](CCCNC(=N)N)NC(=O)[C@H](CCC(N)=O)NC(=O)CNC(=O)[C@@H](N)CSSC[C@@H](C(=O)O)NC(=O)[C@H](Cc2ccc(O)cc2)NC(=O)[C@H](Cc2c[nH]c3ccccc23)NC(=O)[C@@H]2CCCN2C(=O)[C@H](CCCCN)NC(=O)[C@H](C)NC(=O)[C@H](CCC(=O)O)NC1=O [SEQ ID NO: 1]
- concentration in lung tissue ([1]; 72 mg/kg body weight in sum): 1.2 μm/g
- concentration in blood ([1]; 72 mg/kg, detection limit): < 0.1 μm/ml
- biological stability during transformation into an aerosol [2]: keeps its biological, as well as its chemical stability
